Data from US20120270928A1, “MICRORNA COMPOUNDS AND METHODS FOR MODULATING MIR-21 ACTIVITY” (REGULUS THERAPEUTICS INC., priority 2011, published 2012).
Several values for one entry are separate records, joined by “and”; a condition that tells them apart may be missing. Equal values may be shown once. Entries after “also recorded” stand apart in the source; their conditions may differ.

What was measured:
[1] = test system: miR-21; experiment: miR-21 luciferase sensor assay in Hela cells; assay type: cell-based
[2] = test system: UUO model of kidney fibrosis; experiment: Unilateral ureteral obstruction (UUO) model of kidney fibrosis: kidney collagen 1A1 and collagen 3A1 expression by real-time PCR; assay type: in vivo, mice; settings: for Collagen 3A1 (Normalized Expression) Mean / Collagen 1A1 (Normalized Expression) Mean: group mean; for Collagen 1A1 (Normalized Expression) / Collagen 3A1 (Normalized Expression): individual animals, 20 mg/kg
Procedure: Unilateral ureteral obstruction (UUO) is a well-established experimental model of renal injury leading to interstitial fibrosis, and thus is used as an experimental model that is reflective of human kidney disease. UUO is induced by surgically ligating a single ureter. As fibrosis is characterized by an increase in collagen, the presence and extent of kidney fibrosis may be determined by measuring collagen content. Both collagen 1A1 (Col 1A1) and collagen 3A1 (Col 3A1) are measured to assess collagen content. Kidney fibrosis may be visualized by staining tissue samples with picro-sirius red to detect increases in collagen content. Kidney fibrosis may also be observed by measuring the amount of hydroxyproline, which is a major component of collagen, in a sample.
The cEt-containing anti-miR-21 compounds found to be active in the luciferase assay were tested in the UUO model of kidney fibrosis. 25919 comprising 2′-MOE and 2′-fluoro modifications is known to inhibit miR-21 activity in vivo and was included as a positive control. Groups of 8 animals each were treated as follows: UUO only, UUO with PBS, or UUO with anti-miR-21 compound. Relative to the day of the UUO procedure, PBS or anti-miR-21 compound was administered at days −3, −1, and +5. Anti-miR-21 compounds were administered at a dose of 20 mg/kg. As the anti-miR compounds were administered prior to the UUO procedure, this dosing regimen is considered a prophylactic treatment. At day 11, animals were sacrificed and kidney was isolated for measurement of collagen expression. Collagen expression was measured by real-time PCR and normalized first to GAPDH and then to the sham control animals.
The UUO study was repeated to confirm the activity of 25070. The anti-miR was administered subcutaneously at a dose of 20 mg/kg.
Control treatment groups included UUO only (sham) and UUO with PBS administered subcutaneously. An additional control group included UUO with Tween-MC/20 carrier perorally. 25070 administered subcutaneously at dose of 20 mg/kg at 5 days prior to, 2 days prior to, and 3 days after, the UUO procedure. Irbesartan was administered perorally on daily on days 0 through 7 following the UUO procedure. Animals were sacrificed on Day 10 following the UUO procedure. Kidney tissue was collected for measurement of collagen 1A1 and collagen 3A1 expression.
Compounds 25220 and 25221, as well as 25923, were tested in the UUO model for their effects on fibrosis. Groups of 8 animals each were treated as follows: sham surgery, UUO with PBS, UUO with 25220, UUO with 25221, or UUO with 25923. Relative to the day of the UUO procedure, PBS or anti-miR-21 compound was administered at days −5, −3, and +3. Anti-miR-21 compounds were administered at a dose of 20 mg/kg. As the anti-miR compounds were administered prior to the UUO procedure, this dosing regimen is considered a prophylactic treatment. At day 10, animals were sacrificed and kidney was isolated for measurement of collagen expression. Collagen expression was measured by real-time PCR and normalized to GAPDH.

[3] = 4 nM oligonucleotide, Hela cells
[4] = 20 nM oligonucleotide, Hela cells
[5] = 100 nM oligonucleotide, Hela cells
[6] = 500 nM oligonucleotide, Hela cells, two experimental replicates
[7] = .16 nM oligonucleotide, Hela cells
[8] = .8 nM oligonucleotide, Hela cells
[9] = Table K, UUO mice, 20 mg/kg at days -3, -1, +5, kidney at day 11, UUO-PBS mean 87.2
[10] = Table K, UUO mice, 20 mg/kg at days -3, -1, +5, kidney at day 11, UUO-PBS mean 114.9
[11] = Table K, UUO mice, 20 mg/kg at days -3, -1, +5 (prophylactic), kidney at day 11, real-time PCR normalized to GAPDH then sham
[12] = Table L, repeat UUO study, 20 mg/kg SC, prophylactic
[13] = Table M, UUO, 25070 20 mg/kg s.c. 5 and 2 days prior to and 3 days after UUO, irbesartan PO daily days 0-7, sacrifice Day 10
[14] = meta-analysis of UUO studies, 20 mg/kg at days -3, -1, +5, kidney at day 11
[15] = repeated UUO study, subcutaneously 20 mg/kg, prophylactic

UECEAFAFCFAFUFCFAFGFUFCEUEGEAFUFAFAFGFCFUEAE (antisense TCAACATCAGTCTGATAAGCTA; listed as DNA, chemistry not fully specified) [Compound 25919, reference compound]
luciferase value normalized to beta-galactosidase activity [1, 3]: 84 | luciferase value normalized to beta-galactosidase activity [1, 4]: 114 | luciferase value normalized to beta-galactosidase activity [1, 5]: 171 | luciferase value normalized to beta-galactosidase activity [1, 6]: 202 | luciferase value normalized to beta-galactosidase activity [1, 7]: 40 | luciferase value normalized to beta-galactosidase activity [1, 8]: 53 | Collagen 3A1 (Normalized Expression) Mean [2, 9]: 56.9 | Collagen 1A1 (Normalized Expression) Mean [2, 10]: 86.6 | Collagen 1A1 (Normalized Expression) [2, 11]: 150.2 and 54.2 and 84.6 and 67.7 and 78.7 and 62.2 and 89.2 and 106.2 | Collagen 3A1 (Normalized Expression) [2, 11]: 67.1 and 33.9 and 87.6 and 47.3 and 67.7 and 46.7 and 47.0 and 57.8

AECSATCSAGTCSTGAUSAAGCSTAE (ACATCAGTCTGATAAGCTA; modified nucleosides, phosphorothioate linkages, chemistry not fully specified) [Compound 25070]
luciferase value normalized to beta-galactosidase activity [1, 3]: 99 | luciferase value normalized to beta-galactosidase activity [1, 4]: 128 | luciferase value normalized to beta-galactosidase activity [1, 5]: 132 | luciferase value normalized to beta-galactosidase activity [1, 6]: 165 | luciferase value normalized to beta-galactosidase activity [1, 7]: 65 | luciferase value normalized to beta-galactosidase activity [1, 8]: 87 | inhibition of miR-21 activity in the luciferase assay (in words) ([1]; Hela cells): inhibition of miR-21 in a dose-dependent manner; also recorded: potent inhibitor of miR-21 activity | fold change in luciferase value relative to the mock treatment ([1]; concentration of anti-miR compound 0.2 (unit not given)): 1.04 fold change | fold change in luciferase value relative to the mock treatment ([1]; concentration of anti-miR compound 0.6 (unit not given)): 1.01 fold change | fold change in luciferase value relative to the mock treatment ([1]; concentration of anti-miR compound 1.9 (unit not given)): 1.14 fold change | fold change in luciferase value relative to the mock treatment ([1]; concentration of anti-miR compound 5.6 (unit not given)): 6.22 fold change | fold change in luciferase value relative to the mock treatment ([1]; concentration of anti-miR compound 16.7 (unit not given)): 11.28 fold change | fold change in luciferase value relative to the mock treatment ([1]; concentration of anti-miR compound 50.0 (unit not given)): 11.00 fold change | Collagen 3A1 (Normalized Expression) Mean [2, 9]: 55.5 | Collagen 1A1 (Normalized Expression) Mean [2, 10]: 81.0 | Collagen 1A1 (Normalized Expression) [2, 11]: 67.7 and 97.7 and 88.8 and 95.9 and 71.4 and 44.5 and 73.0 and 109.4 | Collagen 3A1 (Normalized Expression) [2, 11]: 36.4 and 75.6 and 47.3 and 55.5 and 63.3 and 28.5 and 64.2 and 72.9 | Collagen 3A1 (Normalized Expression) Mean ([2]; Table L, repeat UUO study, 20 mg/kg SC, prophylactic, UUO-PBS mean 58.8): 42.4 | Collagen 1A1 (Normalized Expression) Mean ([2]; Table L, repeat UUO study, 20 mg/kg SC, prophylactic, UUO-PBS mean 74.3): 30.2 | Collagen 1A1 (Normalized Expression) [2, 12]: 13.9 and 9.2 and 32.3 and 57.2 and 47.6 and 26.1 and 35.0 and 20.4 | Collagen 3A1 (Normalized Expression) [2, 12]: 34.9 and 47.4 and 25.3 and 38.0 and 47.9 and 54.3 and 56.1 and 35.2 | Collagen 3A1 (Normalized Expression) Mean ([2]; Table M, UUO, 25070 20 mg/kg s.c., irbesartan PO daily days 0-7, Day 10, UUO-PBS 93.2, Tween/MC vehicle 132.4): 53.7 | Collagen 1A1 (Normalized Expression) Mean ([2]; Table M, UUO, 25070 20 mg/kg s.c., irbesartan PO daily days 0-7, Day 10, UUO-PBS 129.6, Tween/MC vehicle 150.2): 64.2 | Collagen 1A1 (Normalized Expression) [2, 13]: 87.5 and 67.4 and 22.2 and 61.9 and 42.0 and 69.2 and 68.4 and 95.2 | Collagen 3A1 (Normalized Expression) [2, 13]: 38.6 and 56.9 and 77.2 and 50.7 and 76.4 and 49.7 and 44.3 and 35.9 | reduction in Col3a1 expression (significance) ([2]; UUO, comparison with irbesartan, sacrifice Day 10): statistically significant reductions | reduction in Col1A1 expression relative to saline-treated animals (significance) ([2]; UUO, comparison with irbesartan, sacrifice Day 10, p<0.05 by one-way ANOVA): statistically significant reduction | reduction in collagen expression (in words) ([2]; meta-analysis of UUO studies, 20 mg/kg at days -3, -1, +5): greatest potency | inhibition of collagen 1A1 [2, 14]: 40% | inhibition of collagen 3A1 [2, 14]: 30% | collagen 1A1 expression (in words) [2, 15]: potent inhibitor of collagen 1A1 and collagen 3A1 expression | collagen 3A1 expression (in words) [2, 15]: potent inhibitor of collagen 1A1 and collagen 3A1 expression
